Measurements as given in the supplement of paper PMC10307832.

Tests used:
Experiment in all cases: relative viability (nuclei count vs DMSO), 5 days (fraction); higher = more cells survive
Masitinib + Navitoclax = compound: Cc1ccc(NC(=O)c2ccc(CN3CCN(C)CC3)cc2)cc1Nc1nc(-c2cccnc2)cs1 [Masitinib] + CC1(C)CCC(c2ccc(Cl)cc2)=C(CN2CCN(c3ccc(C(=O)NS(=O)(=O)c4ccc(N[C@H](CCN5CCOCC5)CSc5ccccc5)c(S(=O)(=O)C(F)(F)F)c4)cc3)CC2)C1 [Navitoclax] (partner 0.5 µM)
How it was run: (§1)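 The day after seeding in 1536-well plates, lung cancer cell lines were treated by pin tool with a single drug, or with a fixed anchor-drug dose together with five library-drug doses (not always all listed) in √10 steps. After 5 days, a combined fix-and-stain solution (final 0.05% Triton X-100, 1% formaldehyde, 1 ug/ml Hoechst) was added. Nuclei counted on 4× images gave relative viability as treated counts over vehicle counts, reported as the median of duplicate plates.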

Masitinib + Trametinib = compound: Cc1ccc(NC(=O)c2ccc(CN3CCN(C)CC3)cc2)cc1Nc1nc(-c2cccnc2)cs1 [Masitinib] + CC(=O)Nc1cccc(-n2c(=O)n(C3CC3)c(=O)c3c(Nc4ccc(I)cc4F)n(C)c(=O)c(C)c32)c1 [Trametinib] (partner 0.02 µM)
How it was run: as §1

[1] = compound: CC1=CC(=CC=C1)NC2=NC(=CS2)C3=CC=NC=C3 + O=C(CCCCCCC(=O)Nc1ccccc1)NO [Vorinostat] (partner 1 µM)
How it was run: as §1

[2] = compound: CC1=CC(=CC=C1)NC2=NC(=CS2)C3=CC=NC=C3 + COc1cc2c(Oc3ccc(NC(=O)C4(C(=O)Nc5ccc(F)cc5)CC4)cc3F)ccnc2cc1OCCCN1CCOCC1 [Foretinib] (partner 0.25 µM)
How it was run: as §1

Cell Line | relative viability (Masitinib + Navitoclax; first compound 0.01 µM) | relative viability (Masitinib + Navitoclax; first compound 0.03162 µM) | relative viability (Masitinib + Navitoclax; first compound 0.1 µM) | relative viability (Masitinib + Navitoclax; first compound 0.3162 µM) | relative viability (Masitinib + Navitoclax; first compound 1 µM) | relative viability (Masitinib + Trametinib; first compound 0.01 µM) | relative viability (Masitinib + Trametinib; first compound 0.03162 µM) | relative viability (Masitinib + Trametinib; first compound 0.1 µM) | relative viability (Masitinib + Trametinib; first compound 0.3162 µM) | relative viability (Masitinib + Trametinib; first compound 1 µM) | relative viability ([1]; first compound 0.08 µM) | relative viability ([1]; first compound 0.253 µM) | relative viability ([1]; first compound 0.8 µM) | relative viability ([1]; first compound 2.53 µM) | relative viability ([1]; first compound 8 µM) | relative viability ([2]; first compound 0.08 µM) | relative viability ([2]; first compound 0.8 µM) | relative viability ([2]; first compound 2.53 µM) | relative viability ([2]; first compound 8 µM) | relative viability ([2]; first compound 0.253 µM)
201T | 0.954 | 1.2 | 1.08 | 1.21 | 1.19 | 0.599 | 0.712 | 0.628 | 0.745 | 0.719 | 0.933 | 0.937 | 0.92 | 0.842 | 0.76 | 0.835 | 0.939 | 0.759 | 0.871 | 
A549 | 1.18 | 1.19 | 1.41 | 1.19 | 1.23 |  |  |  |  |  |  |  |  |  |  | 0.882 | 0.871 | 0.866 | 0.802 | 0.914
A-427 |  | 0.99 |  | 0.927 | 0.933 | 0.623 | 0.74 | 0.842 | 0.75 | 0.676 | 0.815 | 0.835 | 0.857 | 0.912 | 0.753 | 1.02 | 1.14 | 0.924 | 0.707 | 1.08
ABC-1 |  |  |  |  |  |  |  |  |  |  | 0.944 |  | 1.44 | 0.963 | 0.377 | 1.08 | 1.18 | 0.884 | 1.03 | 1.14
BEN | 0.066 | 0.0657 | 0.066 | 0.0612 | 0.194 | 1.15 | 0.964 | 1.13 | 1.11 | 1.09 | 0.566 | 0.572 | 0.503 | 0.536 | 0.595 | 0.615 | 0.624 | 0.392 | 0.629 | 0.435
CAL-12T | 1.52 | 1.32 | 1.26 | 1.17 | 1.25 | 0.374 | 0.347 | 0.325 | 0.307 | 0.419 | 0.565 | 0.74 | 0.85 | 0.609 | 0.716 | 1.2 | 1.04 | 1.09 | 0.899 | 1.08
COR-L23 | 1.13 | 0.892 | 1.19 | 1.29 | 1.14 | 0.543 | 0.641 | 0.673 | 0.686 | 0.571 | 0.251 | 0.422 | 0.317 | 0.375 | 0.36 | 0.986 | 0.886 | 0.864 | 0.87 | 0.945
COR-L 105 | 0.747 | 0.688 | 0.781 | 0.926 | 0.774 | 0.475 | 0.438 | 0.413 | 0.411 | 0.388 | 0.831 | 0.776 | 0.724 | 0.724 | 0.818 | 1.16 | 1.01 | 1.01 | 0.562 | 0.977
